Data reported in ChEMBL document CHEMBL4007445, “Design, synthesis, and biological evaluation of imidazo[1,2-b]pyridazine derivatives as mTOR inhibitors” (Eur J Med Chem, 2017).

Assays:
[1] = tested on: A549; assay: Growth inhibition of human A549 cells at 20 uM after 72 hrs by SRB assay relative to control; type: functional; settings: A549, 72 h, read-out: GI
[2] = tested on: MCF7; assay: Growth inhibition of human MCF7 cells at 20 uM after 72 hrs by SRB assay relative to control; type: functional; settings: MCF7, 72 h, read-out: GI
[3] = Growth inhibition of human U87 cells at 20 uM after 72 hrs by SRB assay relative to control; type: functional, U-87MG ATCC; settings: U-87 MG, read-out: GI
[4] = tested on: A-375; assay: Growth inhibition of human A375 cells at 20 uM after 72 hrs by SRB assay relative to control; type: functional; settings: A-375, 72 h, read-out: GI
[5] = tested on: HeLa; assay: Growth inhibition of human HeLa cells at 20 uM after 72 hrs by SRB assay relative to control; type: functional; settings: read-out: GI
[6] = tested on: A549; assay: Antiproliferative activity against human A549 cells after 72 hrs by SRB assay; type: functional, cell-based; settings: A549, 72 h
[7] = tested on: A-375; assay: Antiproliferative activity against human A375 cells after 72 hrs by SRB assay; type: functional, cell-based; settings: A-375, 72 h
[8] = tested on: MCF7; assay: Antiproliferative activity against human MCF7 cells after 72 hrs by SRB assay; type: functional, cell-based; settings: MCF7, 72 h
[9] = Antiproliferative activity against human U87 cells after 72 hrs by SRB assay; type: functional, cell-based, U-87MG ATCC; settings: U-87 MG
[10] = tested on: NCI-H460; assay: Antiproliferative activity against human NCI-H460 cells after 72 hrs by SRB assay; type: functional, cell-based; settings: NCI-H460, 72 h
[11] = tested on: HEK293; assay: Antiproliferative activity against HEK293 cells after 72 hrs by SRB assay; type: cell-based; settings: Homo sapiens, HEK293, 72 h
[12] = Solubility of the compound; type: physicochemical
[13] = target: PI3-kinase p110-alpha/p85-alpha (Homo sapiens) (UniProt P27986+P42336); assay: Inhibition of human PI3K p110alpha/p85alpha at 10 uM using phosphatidylinositol 4,5-bisphosphate as substrate after 30 mins by HTRF assay relative to control; type: protein-complex assay
[14] = target: PI3K p110 beta/p85 alpha (Homo sapiens) (UniProt P27986+P42338); assay: Inhibition of human PI3K p110beta/p85alpha at 10 uM using phosphatidylinositol 4,5-bisphosphate as substrate after 30 mins by HTRF assay relative to control; type: protein-complex assay
[15] = target: Phosphatidylinositol 4,5-bisphosphate 3-kinase catalytic subunit gamma isoform (Homo sapiens) (UniProt P48736); assay: Inhibition of human PI3K p120gamma at 10 uM using phosphatidylinositol 4,5-bisphosphate as substrate after 30 mins by HTRF assay relative to control
[16] = target: PI3-kinase p110-delta/p85-alpha (Homo sapiens) (UniProt P27986+O00329); assay: Inhibition of human PI3K p110delta/p85alpha at 10 uM using phosphatidylinositol 4,5-bisphosphate as substrate after 30 mins by HTRF assay relative to control; type: protein-complex assay
[17] = target: PI3-kinase p110-alpha/p85-alpha (Homo sapiens, UniProt P42336); assay: Inhibition of human PI3K p110alpha/p85alpha using phosphatidylinositol 4,5-bisphosphate as substrate after 30 mins by HTRF assay; type: protein-complex assay
PI3-kinase p110-alpha/p85-alpha, sequence (P27986 whole entry): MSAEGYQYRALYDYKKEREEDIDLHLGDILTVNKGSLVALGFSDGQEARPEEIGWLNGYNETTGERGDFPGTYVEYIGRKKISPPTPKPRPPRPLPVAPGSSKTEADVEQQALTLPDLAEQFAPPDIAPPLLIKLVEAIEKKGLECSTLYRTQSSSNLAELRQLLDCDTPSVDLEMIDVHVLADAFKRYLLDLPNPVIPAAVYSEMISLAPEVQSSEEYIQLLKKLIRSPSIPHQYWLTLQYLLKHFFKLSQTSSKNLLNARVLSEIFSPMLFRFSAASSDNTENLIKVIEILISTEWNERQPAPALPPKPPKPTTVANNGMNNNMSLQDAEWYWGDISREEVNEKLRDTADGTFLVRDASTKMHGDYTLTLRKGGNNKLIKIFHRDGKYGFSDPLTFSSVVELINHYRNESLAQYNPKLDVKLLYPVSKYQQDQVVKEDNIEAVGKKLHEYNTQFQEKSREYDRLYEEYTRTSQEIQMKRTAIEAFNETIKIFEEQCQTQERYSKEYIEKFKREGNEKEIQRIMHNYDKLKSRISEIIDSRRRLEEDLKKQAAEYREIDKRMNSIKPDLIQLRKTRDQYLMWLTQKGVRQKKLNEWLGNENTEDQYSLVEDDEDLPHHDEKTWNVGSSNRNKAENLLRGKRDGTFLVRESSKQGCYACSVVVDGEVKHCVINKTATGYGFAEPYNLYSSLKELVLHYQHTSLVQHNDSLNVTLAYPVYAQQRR
PI3-kinase p110-alpha/p85-alpha, sequence (P42336 whole entry): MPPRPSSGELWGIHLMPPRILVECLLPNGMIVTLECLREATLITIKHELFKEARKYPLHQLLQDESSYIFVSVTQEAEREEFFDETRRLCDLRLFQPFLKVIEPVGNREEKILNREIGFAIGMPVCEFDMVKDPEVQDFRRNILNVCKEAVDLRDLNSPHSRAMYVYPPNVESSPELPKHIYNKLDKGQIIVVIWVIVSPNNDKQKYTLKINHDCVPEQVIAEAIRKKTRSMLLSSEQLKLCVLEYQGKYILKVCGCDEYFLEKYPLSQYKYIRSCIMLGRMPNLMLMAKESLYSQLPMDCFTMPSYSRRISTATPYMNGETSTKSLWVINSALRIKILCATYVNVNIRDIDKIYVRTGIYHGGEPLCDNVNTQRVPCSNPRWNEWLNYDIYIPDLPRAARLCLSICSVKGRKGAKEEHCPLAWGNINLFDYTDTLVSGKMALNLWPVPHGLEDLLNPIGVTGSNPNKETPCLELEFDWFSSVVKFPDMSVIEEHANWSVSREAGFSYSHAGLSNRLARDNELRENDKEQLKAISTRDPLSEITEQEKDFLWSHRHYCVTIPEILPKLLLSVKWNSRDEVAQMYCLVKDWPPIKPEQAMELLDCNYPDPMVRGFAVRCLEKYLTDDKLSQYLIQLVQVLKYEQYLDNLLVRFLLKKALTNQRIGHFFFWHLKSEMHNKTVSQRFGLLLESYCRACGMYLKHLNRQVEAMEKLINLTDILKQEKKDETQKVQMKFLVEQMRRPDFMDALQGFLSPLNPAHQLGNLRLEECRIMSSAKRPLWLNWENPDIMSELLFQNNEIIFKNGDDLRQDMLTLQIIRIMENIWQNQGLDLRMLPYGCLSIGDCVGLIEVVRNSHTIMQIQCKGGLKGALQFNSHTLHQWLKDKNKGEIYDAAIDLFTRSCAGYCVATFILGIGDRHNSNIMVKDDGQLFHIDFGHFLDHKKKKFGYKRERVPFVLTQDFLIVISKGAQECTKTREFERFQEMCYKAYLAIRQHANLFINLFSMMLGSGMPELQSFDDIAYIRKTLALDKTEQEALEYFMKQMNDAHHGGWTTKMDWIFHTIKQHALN

PI3K p110 beta/p85 alpha (Homo sapiens), sequence (P27986 2-724 limits assumed): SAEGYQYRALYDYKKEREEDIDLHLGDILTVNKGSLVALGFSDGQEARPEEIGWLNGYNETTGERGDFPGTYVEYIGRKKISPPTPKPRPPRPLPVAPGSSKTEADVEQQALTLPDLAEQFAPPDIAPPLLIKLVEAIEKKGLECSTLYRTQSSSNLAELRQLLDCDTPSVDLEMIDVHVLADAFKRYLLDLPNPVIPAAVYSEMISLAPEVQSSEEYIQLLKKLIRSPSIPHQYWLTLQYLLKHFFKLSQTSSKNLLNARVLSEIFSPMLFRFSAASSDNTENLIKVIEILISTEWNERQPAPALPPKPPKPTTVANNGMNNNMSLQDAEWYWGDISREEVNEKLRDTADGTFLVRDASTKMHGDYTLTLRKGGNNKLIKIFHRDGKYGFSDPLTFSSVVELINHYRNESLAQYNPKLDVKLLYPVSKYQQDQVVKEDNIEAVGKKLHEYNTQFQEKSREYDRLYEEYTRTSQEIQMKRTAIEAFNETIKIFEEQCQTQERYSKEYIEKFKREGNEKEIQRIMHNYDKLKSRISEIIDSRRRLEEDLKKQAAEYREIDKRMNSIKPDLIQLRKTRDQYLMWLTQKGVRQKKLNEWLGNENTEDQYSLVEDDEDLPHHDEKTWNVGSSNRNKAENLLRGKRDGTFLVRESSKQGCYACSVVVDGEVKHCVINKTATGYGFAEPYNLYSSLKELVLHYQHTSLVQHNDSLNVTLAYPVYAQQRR
PI3K p110 beta/p85 alpha (Homo sapiens), sequence (P42338 whole entry partner, canonical isoform): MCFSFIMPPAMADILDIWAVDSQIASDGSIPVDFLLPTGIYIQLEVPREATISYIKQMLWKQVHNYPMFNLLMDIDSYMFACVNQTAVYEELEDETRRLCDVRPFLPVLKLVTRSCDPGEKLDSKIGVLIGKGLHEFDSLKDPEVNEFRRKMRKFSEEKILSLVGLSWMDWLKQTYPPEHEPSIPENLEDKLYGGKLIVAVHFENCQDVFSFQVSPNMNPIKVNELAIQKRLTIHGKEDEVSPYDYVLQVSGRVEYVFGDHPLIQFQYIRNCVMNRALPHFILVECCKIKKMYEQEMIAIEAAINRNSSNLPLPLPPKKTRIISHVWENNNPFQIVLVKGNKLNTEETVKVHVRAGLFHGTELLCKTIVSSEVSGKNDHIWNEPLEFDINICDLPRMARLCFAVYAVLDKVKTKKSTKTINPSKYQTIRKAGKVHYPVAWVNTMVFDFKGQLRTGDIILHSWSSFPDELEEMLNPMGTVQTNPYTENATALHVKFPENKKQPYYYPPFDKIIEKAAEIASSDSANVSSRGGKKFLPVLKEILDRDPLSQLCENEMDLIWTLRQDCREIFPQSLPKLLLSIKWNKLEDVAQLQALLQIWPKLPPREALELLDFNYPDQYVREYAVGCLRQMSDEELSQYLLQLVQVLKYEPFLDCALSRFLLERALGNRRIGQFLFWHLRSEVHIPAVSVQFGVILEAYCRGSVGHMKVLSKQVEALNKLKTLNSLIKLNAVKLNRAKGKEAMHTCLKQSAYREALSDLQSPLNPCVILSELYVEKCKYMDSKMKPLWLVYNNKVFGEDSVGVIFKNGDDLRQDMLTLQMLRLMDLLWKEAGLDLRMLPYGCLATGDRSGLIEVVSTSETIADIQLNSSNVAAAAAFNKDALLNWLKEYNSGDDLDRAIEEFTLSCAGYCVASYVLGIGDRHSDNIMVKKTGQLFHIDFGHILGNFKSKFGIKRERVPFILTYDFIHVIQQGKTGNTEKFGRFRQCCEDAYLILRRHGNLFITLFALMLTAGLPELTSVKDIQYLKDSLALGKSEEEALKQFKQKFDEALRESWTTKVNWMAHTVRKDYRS
Phosphatidylinositol 4,5-bisphosphate 3-kinase catalytic subunit gamma isoform (Homo sapiens), sequence (P48736 whole entry, looked up, canonical isoform): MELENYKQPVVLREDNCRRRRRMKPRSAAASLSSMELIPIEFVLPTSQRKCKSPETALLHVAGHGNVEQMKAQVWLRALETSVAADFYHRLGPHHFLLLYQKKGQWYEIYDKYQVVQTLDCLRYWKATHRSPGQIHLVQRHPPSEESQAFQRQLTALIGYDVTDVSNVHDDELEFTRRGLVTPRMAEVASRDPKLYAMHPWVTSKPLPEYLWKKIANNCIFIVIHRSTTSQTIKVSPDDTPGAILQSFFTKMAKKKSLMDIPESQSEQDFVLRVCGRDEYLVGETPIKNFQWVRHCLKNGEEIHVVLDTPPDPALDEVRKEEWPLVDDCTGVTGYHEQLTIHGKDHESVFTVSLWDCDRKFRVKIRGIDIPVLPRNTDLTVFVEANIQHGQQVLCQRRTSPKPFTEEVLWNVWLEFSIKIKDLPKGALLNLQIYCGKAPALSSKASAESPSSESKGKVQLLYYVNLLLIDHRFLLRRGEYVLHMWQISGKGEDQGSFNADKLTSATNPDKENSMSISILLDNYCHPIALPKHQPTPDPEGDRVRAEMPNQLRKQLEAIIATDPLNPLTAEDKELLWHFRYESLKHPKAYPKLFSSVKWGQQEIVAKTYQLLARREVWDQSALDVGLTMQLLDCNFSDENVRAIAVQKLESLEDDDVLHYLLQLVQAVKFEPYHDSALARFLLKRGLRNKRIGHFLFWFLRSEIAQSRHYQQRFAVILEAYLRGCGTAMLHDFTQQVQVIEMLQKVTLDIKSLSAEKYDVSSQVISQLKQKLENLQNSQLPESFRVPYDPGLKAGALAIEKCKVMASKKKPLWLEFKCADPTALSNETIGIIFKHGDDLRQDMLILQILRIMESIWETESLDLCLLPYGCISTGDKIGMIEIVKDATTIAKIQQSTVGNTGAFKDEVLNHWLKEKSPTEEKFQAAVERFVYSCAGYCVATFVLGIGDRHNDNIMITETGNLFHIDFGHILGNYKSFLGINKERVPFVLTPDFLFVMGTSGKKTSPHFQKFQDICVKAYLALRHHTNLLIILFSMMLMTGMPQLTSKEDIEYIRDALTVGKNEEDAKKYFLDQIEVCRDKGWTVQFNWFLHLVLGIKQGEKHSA

Structure (SMILES) | inhibition of growth at 20 µM [1] [%] | inhibition of growth at 20 µM [2] [%] | inhibition of growth at 20 µM [3] [%] | inhibition of growth at 20 µM [4] [%] | inhibition of growth at 20 µM [5] [%] | IC50 [6] [nM] | IC50 [7] [µM] | IC50 [8] [µM] | IC50 [9] [µM] | IC50 [10] [µM] | IC50 [11] [µM] | solubility [12] | inhibition [13] [%] | inhibition [14] [%] | inhibition [15] [%] | inhibition [16] [%] | IC50 [17] [µM]
COC(=O)N1CCC(c2cnc3c(N4CCOC[C@@H]4C)cc(-c4cccc(CO)c4)nn23)CC1 | 40.4 | 34.6 | -5.2 | 16.3 | 0.2 | – | – | – | – | – | – | – | – | – | – | – | –
Cc1cnc2c(N3CCOCC3)cc(-c3ccc(NC(=O)Nc4cccnc4)cc3)nn12 | – | – | – | – | – | 5000 | 6.4 | 16.3 | 12.9 | 6.8 | 11.5 | Insoluble | – | – | – | – | –
COc1ccc(-c2ccc3c(N4CCOC[C@@H]4C)nc(N4CCOC[C@@H]4C)nc3n2)cc1CO [AZD-8055] | – | – | – | – | – | 50 | 0.12 | 0.14 | 0.19 | 0.01 | 1.4 | – | 70 | 12 | 29 | 59 | 5.58
CCc1cnc2c(N3CCOC[C@@H]3C)cc(-c3ccc(NC(=O)Nc4cccnc4)cc3)nn12 | – | – | – | – | – | 5300 | 4.2 | 6.6 | 8.4 | 3.7 | 7.3 | Insoluble | – | – | – | – | –
COc1ccc(-c2cc(N3CCOC[C@@H]3C)c3ncc(C4CCN(S(C)(=O)=O)CC4)n3n2)cc1CO | 49.6 | 45.1 | 4 | 21.2 | 12.7 | – | – | – | – | – | – | – | – | – | – | – | –
COC(=O)N1CCC(c2cnc3c(N4CCOC[C@@H]4C)cc(-c4ccc5[nH]ccc5c4)nn23)CC1 | 16 | 43.2 | 26.4 | 33.8 | 56 | – | – | – | – | – | – | – | – | – | – | – | –
O=C(Nc1ccncc1)Nc1ccc(-c2cc(N3CCOCC3)c3nccn3n2)cc1 | – | – | – | – | – | 2800 | 7.2 | 21.9 | 11.1 | 20.7 | 12.4 | – | – | – | – | – | –
Oc1cccc(-c2nc(N3CCOCC3)c3oc4ncccc4c3n2)c1 | – | – | – | – | – | – | – | – | – | – | – | – | 101 | 99 | 98 | 96 | –
C[C@H]1COCCN1c1cc(-c2cnc(N)nc2)nn2c(C3CCN(S(C)(=O)=O)CC3)cnc12 | 39.5 | 24.3 | 1.5 | 17.5 | 4.4 | – | – | – | – | – | – | – | – | – | – | – | –
c1cncc(CN2CCC(c3cnc4c(N5CCOCC5)cc(-c5ccc6[nH]ccc6c5)nn34)CC2)c1 | 96.5 | 94.6 | 84.2 | 95.8 | 68.6 | 7100 | 8 | 13.5 | 5.1 | – | – | – | – | – | – | – | –
Cc1cnc2c(N3CCOC[C@@H]3C)cc(-c3ccc(NC(=O)Nc4ccncc4)cc3)nn12 | – | – | – | – | – | 2100 | 2.3 | > 40 | > 40 | > 40 | > 40 | Insoluble | – | – | – | – | –
COc1ccc(-c2cc(N3CCOC[C@@H]3C)c3ncc(C4CCN(Cc5cccnc5)CC4)n3n2)cc1CO | 65 | 37.9 | 11.7 | 15.2 | 50.3 | – | – | – | – | – | – | – | – | – | – | – | –
COc1ccc(NC(=O)Nc2ccc(-c3cc(N4CCOC[C@@H]4C)c4nccn4n3)cc2)cc1 | – | – | – | – | – | 2700 | 7.7 | 5.7 | 7.9 | 4.2 | 10.5 | – | – | – | – | – | –
Cc1cnc2c(N3CCOCC3)cc(-c3ccc(NC(=O)Nc4ccncc4)cc3)nn12 | – | – | – | – | – | > 40000 | > 40 | > 40 | > 40 | > 40 | > 40 | Insoluble | – | – | – | – | –
C[C@H]1COCCN1c1cc(-c2cccc(CO)c2)nn2c(C3CCN(S(C)(=O)=O)CC3)cnc12 | 48.1 | 36.1 | 4.5 | 11.6 | -2.3 | – | – | – | – | – | – | – | – | – | – | – | –
